Assay results published in PubChem BioAssay (NCI).
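Growth conditions: 96-well plates. Treatment: test compound, 48 hours, 5 concentrations. Analysis: linear interpolation between bracketing concentrations; unreached endpoints set to highest concentration. GI50 is the concentration that inhibits growth by half. At the TGI there is no net growth.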

Columns and labels:
Assay in all cases: inhibition of tumour cell growth, NCI panel, 48 h
A549 NSCLC = tested on: A549 NSCLC
HCC-2998 colon = tested on: HCC-2998 colon
RXF 393 renal = tested on: RXF 393 renal
SK-MEL-28 melanoma = tested on: SK-MEL-28 melanoma
SK-OV-3 ovarian = tested on: SK-OV-3 ovarian
SW-620 colon = tested on: SW-620 colon
U251 CNS = tested on: U251 CNS
UACC-257 melanoma = tested on: UACC-257 melanoma
MDA-MB-435 = tested on: MDA-MB-435
MCF7 breast = tested on: MCF7 breast

Structure (SMILES)	TGI (A549 NSCLC) [µM]	TGI (HCC-2998 colon) [µM]	TGI (RXF 393 renal) [µM]	TGI (SK-MEL-28 melanoma) [µM]	TGI (SK-OV-3 ovarian) [µM]	TGI (SW-620 colon) [µM]	TGI (U251 CNS) [µM]	TGI (UACC-257 melanoma) [µM]	GI50 (A549 NSCLC) [µM]	GI50 (MDA-MB-435) [µM]	TGI (MDA-MB-435) [µM]	GI50 (RXF 393 renal) [µM]	GI50 (SK-MEL-28 melanoma) [µM]	GI50 (SK-OV-3 ovarian) [µM]	GI50 (SW-620 colon) [µM]	GI50 (U251 CNS) [µM]	GI50 (UACC-257 melanoma) [µM]	GI50 (HCC-2998 colon) [µM]	GI50 (MCF7 breast) [µM]	TGI (MCF7 breast) [µM]
O=C(c1ccc([N+](=O)[O-])cc1[N+](=O)[O-])N(/N=C/C=C/c1ccccc1)c1nnc(-c2ccccc2)c(-c2ccccc2)n1	> 100	> 100	71.1	68.6	> 100	> 100	> 100	> 100	–	–	–	–	–	–	–	–	–	–	–	–
CCOC(=O)Cc1csc(Nc2ccccc2[N+](=O)[O-])n1	> 100	> 100	> 100	> 100	> 100	> 93.1	> 100	> 100	–	–	–	–	–	–	–	–	–	–	–	–
Cc1nc2c(N)ncnc2o1	> 100	> 100	> 100	> 100	> 100	> 100	> 100	> 100	–	–	–	–	–	–	–	–	–	–	–	–
O=c1[nH]c(=O)n(C2CC(O)C(CO)O2)cc1OS(=O)(=O)C(F)(F)F (stereo unspecified)	> 100	> 100	> 100	> 100	> 100	> 100	> 100	–	–	–	–	–	–	–	–	–	–	–	–	–
CC1=C(C(=O)Nc2ccccc2)C(c2ccc(Cl)c(Cl)c2)C(C(=O)Nc2ccccc2)=C(C)N1	25.3	–	21.7	25.7	31.6	34.7	27.6	26.5	–	–	–	–	–	–	–	–	–	–	–	–
O=c1[nH]c(O)c(C=Nc2ccc(-c3nc4ccccc4o3)cc2)c(=O)[nH]1	> 100	–	> 100	47	> 100	> 100	75.9	> 100	74.9	33.3	> 100	89	16.6	> 100	40.6	23.8	58.4	–	–	–
Nc1c(C(=O)Nc2ccccn2)sc2nc3c(cc12)C(=O)CCC3	> 100	> 100	8.88	> 100	> 100	> 100	> 100	> 100	1.78	–	–	1.11	13.4	1.41	0.706	1.34	69.8	3.15	0.435	> 100
CCSc1nc(N=Cc2ccccc2O)c2cn[nH]c2n1	> 100	–	44.6	> 100	> 100	> 100	> 100	> 100	46.2	19.7	72.8	12.9	33	> 100	38.4	44.4	56.7	–	19.9	59.4
O=[N+]([O-])c1cccnc1N=Nc1c(O)[nH]c2ccccc12	47.7	–	–	74.4	69.5	87.8	> 100	44.6	–	–	> 100	–	–	–	–	–	–	–	–	20.6
Cc1cc(C)nc(NS(=O)(=O)c2ccc(Nc3c4ccccc4nc4c(C(=O)N5CCN(CCO)CC5)cccc34)cc2)n1	> 100	> 100	> 100	> 100	> 100	> 100	> 100	> 100	–	–	–	–	–	–	–	–	–	–	–	–
CCOC(=O)C(Br)=C1OC(=O)c2ccccc2-c2ccccc21 (mixture of isomers)	> 100	38	–	37.8	> 100	35.1	59.4	48	–	–	–	–	–	–	–	–	–	–	–	–
CCOc1ccc(OCC(=O)O)c2c1CCCC2=O	> 100	> 100	> 100	> 100	> 100	> 100	> 100	> 100	–	–	–	–	–	–	–	–	–	–	–	–
O=C1C/C(Br)=C\c2ccccc2-c2ccccc21	21.8	19.3	3.04	2.8	10.1	2.98	6.83	14.5	–	–	–	–	–	–	–	–	–	–	–	–
c1ccc2c(c1)CCc1c(-c3ccncc3)n[nH]c1-2	> 100	94.2	–	62.8	93.6	> 100	57.8	57.7	–	–	–	–	–	–	–	–	–	–	–	–
COc1cc(C[P+](c2ccccc2)(c2ccccc2)c2ccccc2)cc(OC)c1OC	> 100	> 100	> 100	> 100	> 100	> 100	> 100	> 100	–	–	–	–	–	–	–	–	–	–	–	–
CCCCCCCCCCCC[N+]12CC[N+](CCN)(CC1)CC2	> 100	> 100	18.1	> 100	> 100	> 100	> 100	> 100	–	–	–	–	–	–	–	–	–	–	–	–
C/C(=N\NC(N)=O)c1sc(-c2nc(C)c(/C(C)=N/NC(N)=O)s2)nc1C	> 100	> 100	> 100	> 100	> 100	–	> 100	> 100	–	–	–	–	–	–	–	–	–	–	–	–

Structure (SMILES)	TGI (A549 NSCLC) [µM]	TGI (HCC-2998 colon) [µM]	TGI (RXF 393 renal) [µM]	TGI (SK-MEL-28 melanoma) [µM]	TGI (SK-OV-3 ovarian) [µM]	TGI (SW-620 colon) [µM]	TGI (U251 CNS) [µM]	TGI (UACC-257 melanoma) [µM]	GI50 (A549 NSCLC) [µM]	GI50 (MDA-MB-435) [µM]	TGI (MDA-MB-435) [µM]	GI50 (RXF 393 renal) [µM]	GI50 (SK-MEL-28 melanoma) [µM]	GI50 (SK-OV-3 ovarian) [µM]	GI50 (SW-620 colon) [µM]	GI50 (U251 CNS) [µM]	GI50 (UACC-257 melanoma) [µM]	GI50 (HCC-2998 colon) [µM]	GI50 (MCF7 breast) [µM]	TGI (MCF7 breast) [µM]
CC(C)C1CN(C(=O)OCc2ccccc2)C2N1C(=O)C2(C)OCc1ccccc1 (stereo unspecified)	> 100	> 100	> 100	> 100	–	> 100	> 100	96.9	–	–	–	–	–	–	–	–	–	–	–	–
C[N+](C)(C)CC(=O)N/N=C(/Cc1cc(=O)oc2cc(O)ccc12)C(=O)Nc1ccc(Cl)cc1	> 100	> 100	> 100	> 100	> 100	> 100	–	> 100	–	–	–	–	–	–	–	–	–	–	–	–
CN1Nc2ccccc2CC1=O	> 100	> 100	–	> 100	> 100	> 100	> 100	> 100	–	–	–	–	–	–	–	–	–	–	–	–
COc1cc(OC)c(OC)cc1/C=N/NC(=O)N/N=C/c1cc(OC)c(OC)cc1OC	> 100	–	–	> 100	> 100	> 100	> 100	> 100	–	–	–	–	–	–	–	–	–	–	–	–
COCOCCC#CCO	> 100	> 100	> 100	> 100	> 100	> 100	> 100	> 100	–	–	–	–	–	–	–	–	–	–	–	–
CC12c3ccccc3C(OC=O)(c3ccccc31)C1(C)c3ccccc3C2(OC=O)c2ccccc21	> 100	> 100	> 100	> 100	> 100	> 100	> 100	> 100	–	–	–	–	–	–	–	–	–	–	–	–
CCCCCCCCc1cc2c(O)c(c1)Cc1cc(CCCCCCCC)cc(c1O)Cc1cc(CCCCCCCC)cc(c1O)Cc1cc(CCCCCCCC)cc(c1O)Cc1cc(CCCCCCCC)cc(c1O)Cc1cc(CCCCCCCC)cc(c1O)C2	> 100	> 100	–	> 100	> 100	> 100	> 100	> 100	–	–	–	–	–	–	–	–	–	–	–	–
O=C1c2cccc3cccc(c23)C(=O)N1CCN(CCO)CCO	70.7	84.9	92.2	> 100	> 100	46	> 100	54	–	–	–	–	–	–	–	–	–	–	–	–
O/N=C1\CCCCC1C(NO)c1ccccc1 (stereo unspecified)	> 100	> 100	> 100	> 100	> 100	> 100	> 100	> 100	–	–	–	–	–	–	–	–	–	–	–	–
Cc1cc2c(cc1C)[n+](=O)cc(C(=O)C/C(=N/NC(=S)NN)C(=O)Nc1cccc(C(F)(F)F)c1)n2[O-]	> 100	> 100	–	> 100	> 100	> 100	> 100	> 100	–	–	–	–	–	–	–	–	–	–	–	–
O=S(=O)(OI(OI(OS(=O)(=O)C(F)(F)F)c1ccccc1)c1ccccc1)C(F)(F)F	> 100	> 100	73.7	–	–	> 100	> 100	–	–	–	–	–	–	–	–	–	–	–	–	–
O=C1C=C(Nc2ccc(Cl)cc2C(=O)c2ccccc2)c2ccccc2C1=O	> 100	> 100	> 100	> 100	> 100	> 100	> 100	> 100	–	–	–	–	–	–	–	–	–	–	–	–
CCCCCCCC(=O)OCC1OC(n2cc(F)c(=O)[nH]c2=O)C(N)C(OC(=O)CCCCCCC)C1O (stereo unspecified)	32.3	35.3	31.9	34.1	93.8	33.6	33.6	33.4	–	–	–	–	–	–	–	–	–	–	–	–
CC[C@@H]1NC(C(=O)OC)Cc2c1[nH]c1ccccc21 (stereo partly specified)	> 100	> 100	–	> 100	> 100	> 100	> 100	> 100	–	–	–	–	–	–	–	–	–	–	–	–
CC(=O)N/C(=C\c1ccccc1/C=C(\NC(C)=O)c1nc2cc(C)c(C)cc2[nH]1)c1nc2cc(C)c(C)cc2[nH]1	> 100	–	–	48.8	69.1	64.7	> 100	–	–	–	–	–	–	–	–	–	–	–	–	–
O=Cc1cc2c(cc1-c1cc3c(cc1C=O)OCO3)OCO2	> 100	> 100	94.1	> 100	> 100	> 100	> 100	> 100	–	–	–	–	–	–	–	–	–	–	–	–
O=C1C=C(c2c(O)ccc3ccccc23)c2cc(O)ccc2C1=O	36.7	33.6	29.1	36	38.5	34.3	28.4	33.1	–	–	–	–	–	–	–	–	–	–	–	–
